In paper PMC9403976, “Elucidating the path to Plasmodium prolyl-tRNA synthetase inhibitors that overcome halofuginone resistance” (Nature Communications, 2022):
Several values for one entry are separate records, joined by “and”; a condition that tells them apart may be missing. Identical values can stand only once. Like-named read-outs stand apart in the source and are kept apart here.

Legend:
[1] = tested on: P. falciparum Dd2-2D4; assay: P. falciparum asexual blood stage (ABS) growth assay, SYBR Green, 72 h, wild-type parasites; format: cell-based, Plasmodium falciparum; conditions: Plasmodium falciparum, DD2; SI Fig 16b; values on -log scale; read-out: ABS - Dd2-2D4 (converted)
[2] = target: T1, PfcProRS (Plasmodium falciparum, UniProt Q8I5R7); format: binding; conditions: for dose-response signal (normalized), SI Fig 8: single replicates
T1 construct: made in house; host or cells: E. coli SoluBL-21
T1 sequence (Q8I5R7 249-746): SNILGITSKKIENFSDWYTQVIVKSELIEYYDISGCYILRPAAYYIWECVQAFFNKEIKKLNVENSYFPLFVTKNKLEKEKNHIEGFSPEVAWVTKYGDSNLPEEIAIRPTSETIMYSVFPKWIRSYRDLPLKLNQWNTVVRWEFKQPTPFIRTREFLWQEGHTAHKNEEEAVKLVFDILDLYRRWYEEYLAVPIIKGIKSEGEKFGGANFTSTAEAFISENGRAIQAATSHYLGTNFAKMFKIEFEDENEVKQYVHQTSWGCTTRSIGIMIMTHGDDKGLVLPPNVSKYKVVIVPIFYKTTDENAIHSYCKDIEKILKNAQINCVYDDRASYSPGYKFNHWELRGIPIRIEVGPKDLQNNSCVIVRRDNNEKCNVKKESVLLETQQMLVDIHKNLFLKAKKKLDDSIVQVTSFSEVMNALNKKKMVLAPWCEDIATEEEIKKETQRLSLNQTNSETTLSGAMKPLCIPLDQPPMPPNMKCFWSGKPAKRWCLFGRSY

[3] = target: HsProRS (Homo sapiens, UniProt P07814); assay: TR-FRET ligand displacement assay with tracer MAT379 (CoraFluor-1-Halo and anti-His6 antibody formats); format: binding; parameters: made in house; host or cells: E. coli SoluBL-21; conditions: for TR-FRET dose-response, normalized signal (SI Fig 11): individual replicates
Sequence of HsProRS (P07814 996-1512): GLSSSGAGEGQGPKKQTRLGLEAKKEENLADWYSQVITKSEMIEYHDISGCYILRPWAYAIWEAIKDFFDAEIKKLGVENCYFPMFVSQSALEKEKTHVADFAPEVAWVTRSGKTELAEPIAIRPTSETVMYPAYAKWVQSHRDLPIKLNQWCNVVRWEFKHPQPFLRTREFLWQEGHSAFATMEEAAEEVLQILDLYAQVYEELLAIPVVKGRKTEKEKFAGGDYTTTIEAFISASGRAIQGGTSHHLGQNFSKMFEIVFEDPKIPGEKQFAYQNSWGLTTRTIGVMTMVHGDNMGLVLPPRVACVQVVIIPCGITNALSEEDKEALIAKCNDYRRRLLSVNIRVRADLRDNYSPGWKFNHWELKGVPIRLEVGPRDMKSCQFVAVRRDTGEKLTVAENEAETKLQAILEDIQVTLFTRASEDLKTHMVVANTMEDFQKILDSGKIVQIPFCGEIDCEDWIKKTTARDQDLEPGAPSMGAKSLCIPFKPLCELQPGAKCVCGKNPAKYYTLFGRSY

## O=C(Nc1nccnc1C(=O)NC1Cc2ccccc2C1)c1ccccc1 [compound 21]
[1]
  EC50: 9.59 µM
[2]; Log[inhibitor] (M) -5.000
  dose-response signal (normalized), SI Fig 8: 2.91E-01 and 3.96E-01 and 3.40E-01
[2]; Log[inhibitor] (M) -5.301
  dose-response signal (normalized), SI Fig 8: 6.52E-01 and 5.68E-01 and 6.33E-01
[2]; Log[inhibitor] (M) -5.601
  dose-response signal (normalized), SI Fig 8: 7.76E-01 and 6.88E-01 and 8.76E-01
[2]; Log[inhibitor] (M) -5.904
  dose-response signal (normalized), SI Fig 8: 1.01E+00 and 9.17E-01 and 9.47E-01
[2]; Log[inhibitor] (M) -6.208
  dose-response signal (normalized), SI Fig 8: 1.01E+00 and 1.00E+00 and 8.81E-01
[2]; Log[inhibitor] (M) -6.509
  dose-response signal (normalized), SI Fig 8: 9.40E-01 and 8.71E-01 and 1.01E+00
[2]; Log[inhibitor] (M) -6.796
  dose-response signal (normalized), SI Fig 8: 1.06E+00 and 9.99E-01 and 1.08E+00
[2]; Log[inhibitor] (M) -7.108
  dose-response signal (normalized), SI Fig 8: 9.00E-01 and 9.54E-01 and 9.75E-01
[2]; Log[inhibitor] (M) -7.409
  dose-response signal (normalized), SI Fig 8: 1.04E+00 and 1.03E+00 and 9.91E-01
[2]; Log[inhibitor] (M) -7.710
  dose-response signal (normalized), SI Fig 8: 9.51E-01 and 8.62E-01 and 1.00E+00
[2]; Log[inhibitor] (M) -8.000
  dose-response signal (normalized), SI Fig 8: 9.32E-01 and 1.04E+00 and 9.09E-01
[2]; Log[inhibitor] (M) -8.301
  dose-response signal (normalized), SI Fig 8: 9.87E-01 and 9.76E-01 and 8.57E-01
[2]; Log[inhibitor] (M) -8.602
  dose-response signal (normalized), SI Fig 8: 1.04E+00 (2×) and 9.76E-01
[2]; Log[inhibitor] (M) -9.000
  dose-response signal (normalized), SI Fig 8: 9.49E-01 and 9.11E-01 and 1.01E+00
[2]; Log[inhibitor] (M) -9.301
  dose-response signal (normalized), SI Fig 8: 1.10E+00 and 1.02E+00 and 1.05E+00
[2]; SI Fig 16a, values on -log scale
  PfcProRS -- best Kd: 5.845
[3]; HsProRS (KD [nM]) mean, no added proline/ATP (-)
  Kd: 7830 nM
[3]; HsProRS - best Kd, SI Fig 16a, values on -log scale
  Kd: 140 nM
[3]; Log[inhibitor] (M) -5.000
  normalized TR-FRET ligand displacement signal, dose-response replicates (SI Fig 6): 5.46E-01 and 5.55E-01 and 4.94E-01
  TR-FRET dose-response, normalized signal (SI Fig 11): 4.76E-01 and 4.38E-01 and 4.70E-01
[3]; Log[inhibitor] (M) -5.301
  normalized TR-FRET ligand displacement signal, dose-response replicates (SI Fig 6): 7.40E-01 and 7.43E-01 and 7.80E-01
  TR-FRET dose-response, normalized signal (SI Fig 11): 6.10E-01 and 6.26E-01 and 6.30E-01
[3]; Log[inhibitor] (M) -5.601
  normalized TR-FRET ligand displacement signal, dose-response replicates (SI Fig 6): 9.19E-01 and 8.75E-01 and 9.42E-01
  TR-FRET dose-response, normalized signal (SI Fig 11): 7.50E-01 and 7.65E-01 and 7.70E-01
[3]; Log[inhibitor] (M) -5.904
  normalized TR-FRET ligand displacement signal, dose-response replicates (SI Fig 6): 9.17E-01 and 1.01E+00 and 8.04E-01
  TR-FRET dose-response, normalized signal (SI Fig 11): 8.93E-01 and 9.01E-01 and 8.63E-01
[3]; Log[inhibitor] (M) -6.208
  normalized TR-FRET ligand displacement signal, dose-response replicates (SI Fig 6): 9.67E-01 and 9.54E-01 and 1.10E+00
  TR-FRET dose-response, normalized signal (SI Fig 11): 8.73E-01 and 9.00E-01 and 9.32E-01
[3]; Log[inhibitor] (M) -6.509
  normalized TR-FRET ligand displacement signal, dose-response replicates (SI Fig 6): 9.94E-01 and 9.87E-01 and 9.37E-01
  TR-FRET dose-response, normalized signal (SI Fig 11): 9.94E-01 and 8.74E-01 and 9.48E-01
[3]; Log[inhibitor] (M) -6.796
  normalized TR-FRET ligand displacement signal, dose-response replicates (SI Fig 6): 1.04E+00 (2×) and 9.65E-01
  TR-FRET dose-response, normalized signal (SI Fig 11): 9.17E-01 and 9.74E-01 and 9.27E-01
[3]; Log[inhibitor] (M) -7.108
  normalized TR-FRET ligand displacement signal, dose-response replicates (SI Fig 6): 1.01E+00 and 1.08E+00 and 1.09E+00
  TR-FRET dose-response, normalized signal (SI Fig 11): 9.75E-01 and 8.96E-01 and 1.01E+00
[3]; Log[inhibitor] (M) -7.409
  normalized TR-FRET ligand displacement signal, dose-response replicates (SI Fig 6): 1.16E+00 and 9.90E-01 and 9.46E-01
  TR-FRET dose-response, normalized signal (SI Fig 11): 9.43E-01 and 9.53E-01 and 9.38E-01
[3]; Log[inhibitor] (M) -7.710
  normalized TR-FRET ligand displacement signal, dose-response replicates (SI Fig 6): 1.13E+00 and 9.28E-01 and 1.00E+00
  TR-FRET dose-response, normalized signal (SI Fig 11): 1.01E+00 and 9.57E-01 and 9.99E-01
[3]; Log[inhibitor] (M) -8.000
  normalized TR-FRET ligand displacement signal, dose-response replicates (SI Fig 6): 1.06E+00 and 9.95E-01 and 9.77E-01
  TR-FRET dose-response, normalized signal (SI Fig 11): 9.75E-01 and 9.47E-01 and 9.43E-01
[3]; Log[inhibitor] (M) -8.301
  normalized TR-FRET ligand displacement signal, dose-response replicates (SI Fig 6): 9.85E-01 and 1.04E+00 and 1.05E+00
  TR-FRET dose-response, normalized signal (SI Fig 11): 8.99E-01 and 9.31E-01 and 9.94E-01
[3]; Log[inhibitor] (M) -8.602
  normalized TR-FRET ligand displacement signal, dose-response replicates (SI Fig 6): 9.47E-01 and 9.26E-01 and 9.87E-01
  TR-FRET dose-response, normalized signal (SI Fig 11): 9.70E-01 and 9.30E-01 and 9.54E-01
[3]; Log[inhibitor] (M) -9.000
  normalized TR-FRET ligand displacement signal, dose-response replicates (SI Fig 6): 9.16E-01 and 9.83E-01 and 9.58E-01
  TR-FRET dose-response, normalized signal (SI Fig 11): 9.06E-01 and 1.03E+00 and 9.30E-01
[3]; Log[inhibitor] (M) -9.301
  normalized TR-FRET ligand displacement signal, dose-response replicates (SI Fig 6): 8.87E-01 and 1.01E+00 (2×)
  TR-FRET dose-response, normalized signal (SI Fig 11): 9.47E-01 and 9.42E-01 and 9.85E-01
